The series has as its system CYP3A4. As to the kind of experiment: Human CYP3A4 induction assay (mRNA, cryopreserved human hepatocytes). The settings on record: 10 uM test compound, 72 hours, percent of control (rifampin positive control).
Description: Human CYP3A4 Induction Assay
Cryopreserved human hepatocytes were seeded in 96-well collagen coated plates at 70,000 cells per well in hepatocyte plating media (HPM, final concentrations: 1× Dulbecco's Modified Eagle's Medium, 0.1 μM dexamethasone, 10% fetal bovine serum, 1×ITS, 1×PSG) followed by incubation at 37° C. under 5% CO2 and 90% relative humidity for 2 days to allow hepatocytes to form a confluent layer. On Day 3, hepatocytes were treated with either test compound or rifampin (20 μM, positive control for CYP3A induction) prepared in hepatocyte incubation media ((HIM, final concentrations: 1× William's Medium E, 0.1 μM dexamethasone, 1×ITS, 1×PSG). Treatment was performed for 72 hours with either 2 concentrations (2 μM or 10 μM) or a range of concentrations (0.001 μM to 100 μM) of the test compound to obtain full dose-response curve. Fresh media containing the relevant concentrations of the test compound was replaced every day until the samples were processed. After 72 hours of incubation, samples were processed for mRNA analysis using bDNA technology using manufacturer's instructions (Affymetrix, Fremont, CA). Cell viability was tested at the end of the experiment using MTT assay kit (Roche Diagnostics, Basel, Switzerland). Data was analyzed and presented as percent of control (POC) and Emax and EC50 obtained when appropriate according to guidance from Center for Drug Evaluation and Research (CDER), 2006, Guidance for Industry, Drug Interaction Studies—Study Design, Data Analysis, and Implications for Dosing and Labeling.
As to `COc1cc(C2CC(F)(F)C2)c(F)cc1-n1c(=O)ccc2cc(S(=O)(=O)Nc3ccon3)ccc21` (atropisomer, axis not shown; (P)) [Example 4, (P)-1-(4-(3,3-difluorocyclobutyl)-5-fluoro-2-methoxyphenyl)-N-(isoxazol-3-yl)-2-oxo-1,2-dihydroquinoline-6-sulfonamide], the “Hu CYP3A4 mRNA Induction (10 uM POC)” value stood at 14.71%.

As for `COc1cc([C@H]2C[C@](F)(C(F)(F)F)C2)c(Cl)cc1-n1c(=O)ccc2cc(S(=O)(=O)Nc3ccon3)ccc21` (atropisomer, axis not shown; (P)) [Example 10, cis-(P)-1-(5-chloro-4-(3-fluoro-3-(trifluoromethyl)cyclobutyl)-2-methoxyphenyl)-N-(isoxazol-3-yl)-2-oxo-1,2-dihydroquinoline-6-sulfonamide], the “Hu CYP3A4 mRNA Induction (10 uM POC)” value turned out to be 5.66%.

Turning to `COc1cc([C@H]2C[C@@](F)(C(F)(F)F)C2)c(Cl)cc1-n1c(=O)ccc2cc(S(=O)(=O)Nc3ccon3)ccc21` (atropisomer, axis not shown; (P)) [Example 11, trans-(P)-1-(5-chloro-4-(3-fluoro-3-(trifluoromethyl)cyclobutyl)-2-methoxyphenyl)-N-(isoxazol-3-yl)-2-oxo-1,2-dihydroquinoline-6-sulfonamide], the “Hu CYP3A4 mRNA Induction (10 uM POC)” value was 7.29%.

Turning to `COc1cc(C2CCC2)c(F)cc1-n1c(=O)ccc2cc(S(=O)(=O)Nc3ccon3)ccc21` (atropisomer, axis not shown; (P)) [Example 14, (P)-1-(4-cyclobutyl-5-fluoro-2-methoxyphenyl)-N-(isoxazol-3-yl)-2-oxo-1,2-dihydroquinoline-6-sulfonamide], the “Hu CYP3A4 mRNA Induction (10 uM POC)” value is recorded as 18.3%.

As to `COc1cc([C@H]2C[C@H](C(F)(F)F)C2)c(F)cc1-n1c(=O)ccc2cc(S(=O)(=O)Nc3ncccn3)ccc21` (atropisomer, axis not shown; (P)) [Example 15, trans-(P)-1-(5-fluoro-2-methoxy-4-(3-(trifluoromethyl)cyclobutyl)phenyl)-2-oxo-N-(pyrimidin-2-yl)-1,2-dihydroquinoline-6-sulfonamide], the “Hu CYP3A4 mRNA Induction (10 uM POC)” value was determined as 36%.

As to `COc1cc([C@H]2C[C@@H](C(F)(F)F)C2)c(Cl)cc1-n1c(=O)ccc2cc(S(=O)(=O)Nc3ncccn3)ccc21` (atropisomer, axis not shown; (P)) [Example 16, cis-(P)-1-(5-chloro-2-methoxy-4-(3-(trifluoromethyl)cyclobutyl)phenyl)-2-oxo-N-(pyrimidin-2-yl)-1,2-dihydroquinoline-6-sulfonamide], the “Hu CYP3A4 mRNA Induction (10 uM POC)” value came to 130.1%.

Consider `COc1cc([C@H]2C[C@H](C(F)(F)F)C2)c(Cl)cc1-n1c(=O)ccc2cc(S(=O)(=O)Nc3ncccn3)ccc21` (atropisomer, axis not shown; (P)) [Example 17, trans-(P)-1-(5-chloro-2-methoxy-4-(3-(trifluoromethyl)cyclobutyl)phenyl)-2-oxo-N-(pyrimidin-2-yl)-1,2-dihydroquinoline-6-sulfonamide], for which the “Hu CYP3A4 mRNA Induction (10 uM POC)” value is listed as 61.91%.

Take `COc1cc(C2CCC2)c(Cl)cc1-n1c(=O)ccc2cc(S(=O)(=O)Nc3ncccn3)ccc21` (atropisomer, axis not shown; (P)) [Example 18, (P)-1-(5-chloro-4-cyclobutyl-2-methoxyphenyl)-2-oxo-N-(pyrimidin-2-yl)-1,2-dihydroquinoline-6-sulfonamide]: the “Hu CYP3A4 mRNA Induction (10 uM POC)” value was found to be 20.78%.

For `COc1cc([C@H]2C[C@H](C(F)(F)F)C2)c(Cl)cc1-n1c(=O)ccc2cc(S(=O)(=O)Nc3cccnn3)ccc21` (atropisomer, axis not shown; (P)) [Example 19, trans-(P)-1-(5-chloro-2-methoxy-4-(3-(trifluoromethyl)cyclobutyl)phenyl)-2-oxo-N-(pyridazin-3-yl)-1,2-dihydroquinoline-6-sulfonamide], the “Hu CYP3A4 mRNA Induction (10 uM POC)” value was 60.73%.

For the compound `COc1cc([C@H]2C[C@H](C(F)(F)F)C2)c(C)cc1-n1c(=O)ccc2cc(S(=O)(=O)Nc3ccon3)ccc21` (atropisomer, axis not shown; (P)) [Example 20, trans-(P)—N-(isoxazol-3-yl)-1-(2-methoxy-5-methyl-4-(3-(trifluoromethyl)cyclobutyl)phenyl)-2-oxo-1,2-dihydroquinoline-6-sulfonamide], the “Hu CYP3A4 mRNA Induction (10 uM POC)” value was 42.22%.

Regarding `COc1cc(C2CCC2)c(Cl)cc1-n1c(=O)ccc2cc(S(=O)(=O)Nc3ccon3)ccc21` (atropisomer, axis not shown; (P)) [Example 21, (P)-1-(5-chloro-4-cyclobutyl-2-methoxyphenyl)-N-(isoxazol-3-yl)-2-oxo-1,2-dihydroquinoline-6-sulfonamide], the “Hu CYP3A4 mRNA Induction (10 uM POC)” value was found to be 17.07%.

Regarding `COc1cc(C2CCC2)c(C)cc1-n1c(=O)ccc2cc(S(=O)(=O)Nc3ccon3)ccc21` (atropisomer, axis not shown; (P)) [Example 22, (P)-1-(4-cyclobutyl-2-methoxy-5-methylphenyl)-N-(isoxazol-3-yl)-2-oxo-1,2-dihydroquinoline-6-sulfonamide], the “Hu CYP3A4 mRNA Induction (10 uM POC)” value is 24.14%.

On to `COc1cc(C2CCC2)c(F)cc1-n1c(=O)ccc2cc(S(=O)(=O)Nc3cccnn3)ccc21` (atropisomer, axis not shown; (P)) [Example 23, (P)-1-(4-cyclobutyl-5-fluoro-2-methoxyphenyl)-2-oxo-N-(pyridazin-3-yl)-1,2-dihydroquinoline-6-sulfonamide], for which the “Hu CYP3A4 mRNA Induction (10 uM POC)” value is listed as 14.37%.

On to `COc1cc(C2CCC2)c(F)cc1-n1c(=O)ccc2cc(S(=O)(=O)Nc3ncco3)ccc21` (atropisomer, axis not shown; (P)) [Example 24, (P)-1-(4-cyclobutyl-5-fluoro-2-methoxyphenyl)-N-(oxazol-2-yl)-2-oxo-1,2-dihydroquinoline-6-sulfonamide], for which the “Hu CYP3A4 mRNA Induction (10 uM POC)” value is 89.26%.

In the case of `COc1cc(C2CCC2)ccc1-n1c(=O)ccc2cc(S(=O)(=O)Nc3ccon3)ccc21` (atropisomer, axis not shown; (P)) [Example 25, (P)-1-(4-cyclobutyl-2-methoxyphenyl)-N-(isoxazol-3-yl)-2-oxo-1,2-dihydroquinoline-6-sulfonamide], the “Hu CYP3A4 mRNA Induction (10 uM POC)” value is 18.57%.

As to `COc1cc(C2CCC2)ccc1-n1c(=O)ccc2cc(S(=O)(=O)Nc3ncccn3)ccc21` (atropisomer, axis not shown; (P)) [Example 26, (P)-1-(4-cyclobutyl-2-methoxyphenyl)-2-oxo-N-(pyrimidin-2-yl)-1,2-dihydroquinoline-6-sulfonamide], the “Hu CYP3A4 mRNA Induction (10 uM POC)” value is 14.58%.

Take `COc1cc(C2CCC2)c(C)cc1-n1c(=O)ccc2cc(S(=O)(=O)Nc3ncccn3)ccc21` (atropisomer, axis not shown; (P)) [Example 27, (P)-1-(4-Cyclobutyl-2-Methoxy-5-Methylphenyl)-2-Oxo-N-(Pyrimidin-2-Yl)-1,2-Dihydroquinoline-6-Sulfonamide]: the “Hu CYP3A4 mRNA Induction (10 uM POC)” value is given as 48.14%.

For `COc1cc(C2CCC2)c(F)cc1-n1c(=O)ccc2cc(S(=O)(=O)Nc3ncccn3)ccc21` (atropisomer, axis not shown; (P)) [Example 28, (P)-1-(4-cyclobutyl-5-fluoro-2-methoxyphenyl)-2-oxo-N-(pyrimidin-2-yl)-1,2-dihydroquinoline-6-sulfonamide], the “Hu CYP3A4 mRNA Induction (10 uM POC)” value stood at 60.29%.

Take `COc1cc(C2CCC2)ccc1-n1c(=O)ccc2cc(S(=O)(=O)Nc3ncco3)ccc21` (atropisomer, axis not shown; (P)) [Example 29, (P)-1-(4-cyclobutyl-2-methoxyphenyl)-N-(oxazol-2-yl)-2-oxo-1,2-dihydroquinoline-6-sulfonamide]: the “Hu CYP3A4 mRNA Induction (10 uM POC)” value was determined as 34.63%.

On to `COc1cc(C2CCC2)c(Cl)cc1-n1c(=O)ccc2cc(S(=O)(=O)Nc3ncco3)ccc21` (atropisomer, axis not shown; (P)) [Example 32, (P)-1-(5-chloro-4-cyclobutyl-2-methoxyphenyl)-N-(oxazol-2-yl)-2-oxo-1,2-dihydroquinoline-6-sulfonamide], for which the “Hu CYP3A4 mRNA Induction (10 uM POC)” value was found to be 88%.

As for `COc1cc(C2CCC2)c(C)cc1-n1c(=O)ccc2cc(S(=O)(=O)Nc3ncco3)ccc21` (atropisomer, axis not shown; (P)) [Example 34, (P)-1-(4-cyclobutyl-2-methoxy-5-methylphenyl)-N-(oxazol-2-yl)-2-oxo-1,2-dihydroquinoline-6-sulfonamide], the “Hu CYP3A4 mRNA Induction (10 uM POC)” value is listed as 69.54%.

Turning to `COc1cc([C@H]2C[C@H](C(F)(F)F)C2)ccc1-n1c(=O)ccc2cc(S(=O)(=O)Nc3ccon3)ccc21` (atropisomer, axis not shown; (P)) [Example 35, trans-(P)—N-(isoxazol-3-yl)-1-(2-methoxy-4-(3-(trifluoromethyl)cyclobutyl)phenyl)-2-oxo-1,2-dihydroquinoline-6-sulfonamide], the “Hu CYP3A4 mRNA Induction (10 uM POC)” value is 13.33%.

In the case of `COc1cc([C@H]2C[C@H](C(F)(F)F)C2)ccc1-n1c(=O)ccc2cc(S(=O)(=O)Nc3ncccn3)ccc21` (atropisomer, axis not shown; (P)) [Example 36, trans-(P)-1-(2-methoxy-4-((1R,3R)-3-(trifluoromethyl)cyclobutyl)phenyl)-2-oxo-N-(pyrimidin-2-yl)-1,2-dihydroquinoline-6-sulfonamide], the “Hu CYP3A4 mRNA Induction (10 uM POC)” value is 19.16%.

As for `COc1cc([C@H]2C[C@H](C(F)(F)F)C2)ccc1-n1c(=O)ccc2cc(S(=O)(=O)Nc3cccnn3)ccc21` (atropisomer, axis not shown; (P)) [Example 38, trans-(P)-1-(2-methoxy-4-(3-(trifluoromethyl)cyclobutyl)phenyl)-2-oxo-N-(pyridazin-3-yl)-1,2-dihydroquinoline-6-sulfonamide], the “Hu CYP3A4 mRNA Induction (10 uM POC)” value came to 4.43%.

`COc1cc([C@H]2C[C@H](C(F)(F)F)C2)c(F)cc1-n1c(=O)ccc2cc(S(=O)(=O)Nc3cccnn3)ccc21` (atropisomer, axis not shown; (P)) [Example 39, trans-(P)-1-(5-fluoro-2-methoxy-4-(3-(trifluoromethyl)cyclobutyl)phenyl)-2-oxo-N-(pyridazin-3-yl)-1,2-dihydroquinoline-6-sulfonamide]: the “Hu CYP3A4 mRNA Induction (10 uM POC)” value turned out to be 21.68%.

The values are drawn from patent US12240839B2, “Cyclobutyl dihydroquinoline sulfonamide compounds” (AMGEN INC., priority 2020, dated 2025).
